The source of these data is article PMC8150690, “Effects of Extraction Conditions on Banana Peel Polyphenol Oxidase Activity and Insights into Inactivation Kinetics Using Thermal and Cold Plasma Treatment” (Foods, 2021).

Holding throughout (type): biochemical, Musa acuminata x Musa balbisiana
For assay [1], the system named is T1, 'Prata' banana peel polyphenol oxidase (PPO).
T1 construct: native crude extract of freeze-dried peel (McIlvaine buffer pH 6.5, PVP, Triton X-100); not purified; o-diphenol oxidase activity
The assay can be described thus: spectrophotometric initial rate, […] nm, non-linear Michaelis-Menten fit. The note with it: crude extract; McIlvaine buffer pH 6.5, 30 °C; O2 co-substrate.

Assay [2] shares this test system. The assay can be described thus: spectrophotometric, […] nm, proline-catechol adduct formation, non-linear Michaelis-Menten fit. The note with it: crude extract; McIlvaine buffer pH 6.5, 30 °C; constant 50 mM L-proline as coupling agent; O2 co-substrate; read-out: apparent KM.
The test system is the same in assay [3]. As to the kind of experiment: spectrophotometric initial rate, […] nm, non-linear Michaelis-Menten fit. The note with it: crude extract; McIlvaine buffer pH 6.5, 30 °C; O2 co-substrate. This is another data set of the same source.

By Km is commonly meant the concentration of substrate that gives half-maximal velocity. Consider `NCCc1ccc(O)c(O)c1` [Dopamine], for which, in assay [1], the Km was 0.94 ± 0.07 mM.

In the case of `Cc1ccc(O)c(O)c1` [4-methylcatechol], the Km in assay [2] amounted to 4.01 mM.

As for `O=C(/C=C/c1ccc(O)c(O)c1)O[C@@H]1C[C@](O)(C(=O)O)C[C@@H](O)[C@H]1O` [Chlorogenic acid], the Km in assay [3] was found to be 7.54 ± 0.51 mM.
